Laboratory results reported in patent publication US20240109917A1 (ACTELION PHARMACEUTICALS LTD, priority 2020, published 2024).

Biological target: VEGFR2, unphosphorylated (Homo sapiens (Human), UniProt P35968)
Experiment: VEGFR ADP GLO Assay
Assay type: biochemical

Sequence of VEGFR2, unphosphorylated (P35968 20-1356): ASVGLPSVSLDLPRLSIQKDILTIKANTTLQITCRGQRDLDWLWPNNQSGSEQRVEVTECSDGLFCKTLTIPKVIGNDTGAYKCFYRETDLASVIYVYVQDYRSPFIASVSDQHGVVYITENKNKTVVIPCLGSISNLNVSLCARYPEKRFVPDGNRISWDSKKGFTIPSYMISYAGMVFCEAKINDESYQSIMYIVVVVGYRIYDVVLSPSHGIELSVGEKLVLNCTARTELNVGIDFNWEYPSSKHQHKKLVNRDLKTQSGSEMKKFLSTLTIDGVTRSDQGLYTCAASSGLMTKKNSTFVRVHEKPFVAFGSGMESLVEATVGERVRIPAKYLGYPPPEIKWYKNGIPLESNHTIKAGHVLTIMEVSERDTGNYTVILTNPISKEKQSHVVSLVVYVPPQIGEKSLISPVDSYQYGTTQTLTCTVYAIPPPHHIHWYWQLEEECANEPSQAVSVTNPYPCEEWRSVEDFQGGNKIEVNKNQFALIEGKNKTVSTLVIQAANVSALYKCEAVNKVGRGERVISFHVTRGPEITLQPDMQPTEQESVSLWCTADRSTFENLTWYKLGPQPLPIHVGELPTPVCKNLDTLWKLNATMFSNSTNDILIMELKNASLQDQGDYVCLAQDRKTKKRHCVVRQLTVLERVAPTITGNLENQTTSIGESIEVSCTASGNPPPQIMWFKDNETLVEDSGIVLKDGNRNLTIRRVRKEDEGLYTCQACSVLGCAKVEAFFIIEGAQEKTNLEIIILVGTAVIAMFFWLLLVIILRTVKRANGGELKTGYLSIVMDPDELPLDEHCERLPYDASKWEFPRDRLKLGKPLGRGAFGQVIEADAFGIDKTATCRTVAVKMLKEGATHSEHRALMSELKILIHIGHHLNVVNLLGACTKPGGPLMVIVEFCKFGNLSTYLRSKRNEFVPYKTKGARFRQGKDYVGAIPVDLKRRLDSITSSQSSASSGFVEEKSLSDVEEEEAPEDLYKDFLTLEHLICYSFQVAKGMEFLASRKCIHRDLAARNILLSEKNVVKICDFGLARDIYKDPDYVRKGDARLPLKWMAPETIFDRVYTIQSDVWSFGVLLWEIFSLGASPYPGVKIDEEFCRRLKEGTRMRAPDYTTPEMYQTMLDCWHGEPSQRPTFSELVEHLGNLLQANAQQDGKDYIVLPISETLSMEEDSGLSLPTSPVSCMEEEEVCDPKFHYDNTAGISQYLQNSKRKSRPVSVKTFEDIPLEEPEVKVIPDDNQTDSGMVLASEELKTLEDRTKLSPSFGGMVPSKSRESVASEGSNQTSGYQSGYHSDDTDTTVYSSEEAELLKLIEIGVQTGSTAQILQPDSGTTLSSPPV

Row | SMILES | IC50 [µM]
1 | COCCn1cc(-c2cn3ncc(C(=O)Nc4cc(NC(=O)CN5CCCCCC5)cnc4C)c3s2)cn1 [Example 339, N-(5-(2-(azepan-1-yl)acetamido)-2-methylpyridin-3-yl)-2-(1-(2-methoxyethyl)-1H-pyrazol-4-yl)pyrazolo[5,1-b]thiazole-7-carboxamide] | > 7.5
2 | COc1ncccc1-c1cn2ncc(C(=O)Nc3cc(NC(=O)CN4CC5(COC5)C4)cnc3C)c2s1 [Example 404, N-(5-(2-(2-oxa-6-azaspiro[3.3]heptan-6-yl)acetamido)-2-methylpyridin-3-yl)-2-(2-methoxypyridin-3-yl)pyrazolo[5,1-b]thiazole-7-carboxamide] | > 7.5
3 | Cc1ncc(NC(=O)CN2CC3CCC(C2)O3)cc1NC(=O)c1cnn2cc(-c3cc[nH]c3)sc12 [Example 366, N-(5-(2-(8-oxa-3-azabicyclo[3.2.1]octan-3-yl)acetamido)-2-methylpyridin-3-yl)-2-(1H-pyrrol-3-yl)pyrazolo[5,1-b]thiazole-7-carboxamide] | 0.571
4 | Cc1ncc(NC(=O)CN2CCC3(CC3)C2)cc1NC(=O)c1cnn2cc(-c3cnn(CCO)c3)sc12 [Example 32, N-(5-(2-(5-azaspiro[2.4]heptan-5-yl)acetamido)-2-methylpyridin-3-yl)-2-(1-(2-hydroxyethyl)-1H-pyrazol-4-yl)pyrazolo[5,1-b]thiazole-7-carboxamide] | > 7.5
5 | COc1ccc(-c2cn3ncc(C(=O)Nc4cc(NC(=O)CN5CC(C)(C)C5)cnc4C)c3s2)cn1 [Example 395, N-(5-(2-(3,3-dimethylazetidin-1-yl)acetamido)-2-methylpyridin-3-yl)-2-(6-methoxypyridin-3-yl)pyrazolo[5,1-b]thiazole-7-carboxamide] | > 7.5
6 | Cc1ncc(NC(=O)CN2C[C@H](C)O[C@@H](C)C2)cc1NC(=O)c1cnn2cc(-c3c[nH]nc3C)sc12 (relative stereo) [Example 371, N-(5-(2-(trans-2,6-dimethylmorpholino)acetamido)-2-methylpyridin-3-yl)-2-(3-methyl-1H-pyrazol-4-yl)pyrazolo[5,1-b]thiazole-7-carboxamide] | > 2.5
7 | Cc1ncc(NC(=O)CN2CC(C)C2)cc1NC(=O)c1cnn2cc(-c3cnn4c3OCCC4)sc12 [Example 407, 2-(6,7-dihydro-5H-pyrazolo[5,1-b][1,3]oxazin-3-yl)-N-(2-methyl-5-(2-(3-methylazetidin-1-yl)acetamido)pyridin-3-yl)pyrazolo[5,1-b]thiazole-7-carboxamide] | > 7.5
8 | Cc1cnn(C)c1-c1cn2ncc(C(=O)Nc3cc(NC(=O)CN4CC(C)(C)C4)cnc3C)c2s1 [Example 389, 2-(1,4-dimethyl-1H-pyrazol-5-yl)-N-(5-(2-(3,3-dimethylazetidin-1-yl)acetamido)-2-methylpyridin-3-yl)pyrazolo[5,1-b]thiazole-7-carboxamide] | > 7.5
9 | Cc1ncc(NC(=O)CN2CC(C)(C)C2)cc1NC(=O)c1cnn2cc(-c3cccnc3C)sc12 [Example 390, N-(5-(2-(3,3-dimethylazetidin-1-yl)acetamido)-2-methylpyridin-3-yl)-2-(2-methylpyridin-3-yl)pyrazolo[5,1-b]thiazole-7-carboxamide] | > 7.5
10 | Cc1ncc(NC(=O)C2CN(C(C)C)C2)cc1NC(=O)c1cnn2cc(-c3cnn(C)c3C)sc12 [Example 357, 2-(1,5-dimethyl-1H-pyrazol-4-yl)-N-(5-(1-isopropylazetidine-3-carboxamido)-2-methylpyridin-3-yl)pyrazolo[5,1-b]thiazole-7-carboxamide] | > 7.5
11 | COCCn1cc(-c2cn3ncc(C(=O)Nc4cc(NC(=O)CN5CCCCC5)cnc4C)c3s2)cn1 [Example 338, 2-(1-(2-methoxyethyl)-1H-pyrazol-4-yl)-N-(2-methyl-5-(2-(piperidin-1-yl)acetamido)pyridin-3-yl)pyrazolo[5,1-b]thiazole-7-carboxamide] | > 7.5
12 | Cc1ncc(NC(=O)CN2CCC[C@@H]2C)cc1NC(=O)c1cnn2cc(-c3ccnc(N4CCOCC4)c3)sc12 [Example 352, (S)—N-(2-methyl-5-(2-(2-methylpyrrolidin-1-yl)acetamido)pyridin-3-yl)-2-(2-morpholinopyridin-4-yl)pyrazolo[5,1-b]thiazole-7-carboxamide] | > 7.5
13 | COCCn1cc(-c2cn3ncc(C(=O)Nc4cc(NC(=O)CN5CC6CCC5CC6)cnc4C)c3s2)cn1 [Example 331, N-(5-(2-(2-azabicyclo[2.2.2]octan-2-yl)acetamido)-2-methylpyridin-3-yl)-2-(1-(2-methoxyethyl)-1H-pyrazol-4-yl)pyrazolo[5,1-b]thiazole-7-carboxamide] | > 7.5
14 | Cc1ncc(NC(=O)CN2CCC3(CCC3)C2)cc1NC(=O)c1cnn2cc(-c3cnn(CCO)c3)sc12 [Example 30, N-(5-(2-(6-azaspiro[3.4]octan-6-yl)acetamido)-2-methylpyridin-3-yl)-2-(1-(2-hydroxyethyl)-1H-pyrazol-4-yl)pyrazolo[5,1-b]thiazole-7-carboxamide] | > 7.5
15 | Cc1ncc(NC(=O)CN2C[C@H](C)O[C@@H](C)C2)cc1NC(=O)c1cnn2cc(-c3cnn(C4CC4)c3)sc12 (relative stereo) [Example 382, 2-(1-cyclopropyl-1H-pyrazol-4-yl)-N-(5-(2-(trans-2,6-dimethylmorpholino)acetamido)-2-methylpyridin-3-yl)pyrazolo[5,1-b]thiazole-7-carboxamide] | > 2.5
16 | COCCn1cc(-c2cn3ncc(C(=O)Nc4cc(NC(=O)C5CN(C(C)C)C5)cnc4C)c3s2)cn1 [Example 342, N-(5-(1-isopropylazetidine-3-carboxamido)-2-methylpyridin-3-yl)-2-(1-(2-methoxyethyl)-1H-pyrazol-4-yl)pyrazolo[5,1-b]thiazole-7-carboxamide] | > 7.5
17 | COCCn1cc(-c2cn3ncc(C(=O)Nc4cc(NC(=O)C5CCN(C(C)C)C5)cnc4C)c3s2)cn1 (stereo not drawn) [Example 345, N-(5-(1-isopropylpyrrolidine-3-carboxamido)-2-methylpyridin-3-yl)-2-(1-(2-methoxyethyl)-1H-pyrazol-4-yl)pyrazolo[5,1-b]thiazole-7-carboxamide] | > 7.5
18 | COCCn1cc(-c2cn3ncc(C(=O)Nc4cc(NC(=O)CN5CCC56CCC6)cnc4C)c3s2)cn1 [Example 333, N-(5-(2-(1-azaspiro[3.3]heptan-1-yl)acetamido)-2-methylpyridin-3-yl)-2-(1-(2-methoxyethyl)-1H-pyrazol-4-yl)pyrazolo[5,1-b]thiazole-7-carboxamide] | > 7.5
19 | CCn1nccc1-c1cn2ncc(C(=O)Nc3cc(NC(=O)CN4CC(C)(C)C4)cnc3C)c2s1 [Example 388, N-(5-(2-(3,3-dimethylazetidin-1-yl)acetamido)-2-methylpyridin-3-yl)-2-(1-ethyl-1H-pyrazol-5-yl)pyrazolo[5,1-b]thiazole-7-carboxamide] | > 7.5
20 | Cc1ncc(NC(=O)CN2CCC[C@H]2C)cc1NC(=O)c1cnn2cc(-c3cnn(C)c3)sc12 [Example 26, (R)-2-(1-methyl-1H-pyrazol-4-yl)-N-(2-methyl-5-(2-(2-methyl-pyrrolidin-1-yl)acetamido)pyridin-3-yl)pyrazolo[5,1-b]thiazole-7-carboxamide] | > 7.5
21 | COCCn1cc(-c2cn3ncc(C(=O)Nc4cc(NC(=O)CN5C6CCC5CC6)cnc4C)c3s2)cn1 [Example 340, N-(5-(2-(7-azabicyclo[2.2.1]heptan-7-yl)acetamido)-2-methylpyridin-3-yl)-2-(1-(2-methoxyethyl)-1H-pyrazol-4-yl)pyrazolo[5,1-b]thiazole-7-carboxamide] | > 7.5
22 | Cc1ncc(NC(=O)CN2CCC3(CC2)CC3)cc1NC(=O)c1cnn2cc(-c3cnn(CCO)c3)sc12 [Example 31, N-(5-(2-(6-azaspiro[2.5]octan-6-yl)acetamido)-2-methylpyridin-3-yl)-2-(1-(2-hydroxyethyl)-1H-pyrazol-4-yl)pyrazolo[5,1-b]thiazole-7-carboxamide] | > 7.5
23 | Cc1ncc(NC(=O)CN2CC3(CCOCC3)C2)cc1NC(=O)c1cnn2cc(-c3cnn4c3OCCC4)sc12 [Example 406, N-(5-(2-(7-oxa-2-azaspiro[3.5]nonan-2-yl)acetamido)-2-methylpyridin-3-yl)-2-(6,7-dihydro-5H-pyrazolo[5,1-b][1,3]oxazin-3-yl)pyrazolo[5,1-b]thiazole-7-carboxamide] | > 7.5
24 | Cc1ncc(NC(=O)CN2C[C@H](CO)OC(C)(C)C2)cc1NC(=O)c1cnn2cc(-c3cnn(C)c3)sc12 [Example 376, (R)—N-(5-(2-(6-(hydroxymethyl)-2,2-dimethylmorpholino)acetamido)-2-methylpyridin-3-yl)-2-(1-methyl-1H-pyrazol-4-yl)pyrazolo[5,1-b]thiazole-7-carboxamide] | > 7.5
